This is an account of results in ChEMBL document CHEMBL5143697, “Phenethoxy Derivatives with Anti-inflammatory Activities from the Betelnut Endophytic Trichoderma asperellum G10” (J Nat Prod, 2022).

The structures appear in SMILES notation.

In the experiment the test system is RAW264.7. Briefly: Antiinflammatory activity against mouse RAW264.7 cells assessed as inhibition of LPS-induced NO production preincubated for 1 hr followed by LPS stimulation and measured after 36 hrs by Griess reagent based assay. The class given is functional, cell-based. On the technique in general: Griess reagent forms a coloured azo dye with nitrite.

Take `C[C@@H]1[C@H](OCCc2ccccc2)O[C@H](C)[C@H]1CO`: the IC50 turned out to be 48.3 µM.

For orientation: IC50 means the concentration that gives 50% inhibition.
